The target in one data set is hERG potassium channels (Homo sapiens (Human), UniProt Q12809). The data set can be described thus: hERG inhibitory activity, whole-cell patch clamp in CHO-hERG cells. Particulars: read-out: hERG inhibitory activity IC50; CHO-hERG cells, whole-cell patch clamp, tail current at -50 mV.
Data set [1] concerns the target T1, 5-HT2A receptor (Homo sapiens (Human), UniProt P28223). The data set can be described thus: Test for 5-HT2A antagonistic activity (calcium ion antagonism, FLIPR, CHO-K1/5-HT2A cells). The class given is cell-based. The following applies: 100 nM a-methyl-5-HT, Ca2+ signal. The method, then:
• Cell lines: CHO-K1/5-HT2A (Chempartner) • Cell culture medium: DMEM/F12+10% FBS (purchased from GBICO) • Cell culture plate: 384-well Assay Plate (purchased from Corning) • Detection kit: FLIPR® Calcium 4 Assay Kit (purchased from Molecular Devices)
After that, centrifugation was performed to remove the culture medium in the cell culture plate. Dye was added, and the cells were incubated in a 37° C., 5% CO2 incubator for another 1 h. The cell culture plate was placed on the FLIPR. A compound to be tested was added, and the Ca^2+ signal was detected, wherein the compound to be tested was subjected to 3-fold gradient dilution with PBS to obtain 10 concentrations, with the highest concentration of 10 uM, and double replicate wells were set up. […] In order to determine the test stability, risperidone was used as a positive control. The data were processed with GraphPad Prism 7.0 to obtain a cell inhibition rate curve, and the IC50 was calculated.
Inhibition rate (%)=100%−[(signal value of the compound to be tested−signal value of the test solution)/(the maximum signal value−the signal value of the test solution)]×100%

Data set [2] deals with T1, 5-HT2A receptor. The data set can be described thus: Screening for 5-HT2A inverse agonistic activity (NIH3T3-5-HT2A R cells, Bright-Glo luciferase, 120 h). The data set is classed as cell-based. Particulars: NIH3T3-5HT2AR cells, cell inhibition rate. The method, then: • Cell lines: Adherent cells NIH3T3-5-HT2A R • Cell culture medium: DMEM+10% FBS (purchased from GBICO) • Cell culture plate: White-wall clear-bottom 96-well plate (purchased from Perkin Elmer) • Detection kit: Bright-Glo™ Luciferase (purchased from Promega) • Detection instrument: BioTek multifunctional microplate reader
NIH3T3-5HT2AR cells in the logarithmic growth phase were seeded into a white-wall clear-bottom 96-well plate at a density of 1000 cells per well, and cultured overnight in a 37° C., 5% CO2 incubator. […] On the sixth day, a Bright-Glo™ Luciferase reagent with a volume equal to that of cell sap was added to the cells, and the cells were incubated at room temperature in the dark for 20 min. […] The data was processed with GraphPad Prism 7.0 to obtain a cell inhibition rate curve, and the IC50 was calculated.
Cell inhibition rate (%)=[100−(Lum test drug−Lum culture solution)/(Lum cell control−Lum culture solution)×100]%

One may read the IC50 as the concentration that gives 50% inhibition.

T1 sequence (P28223 whole entry): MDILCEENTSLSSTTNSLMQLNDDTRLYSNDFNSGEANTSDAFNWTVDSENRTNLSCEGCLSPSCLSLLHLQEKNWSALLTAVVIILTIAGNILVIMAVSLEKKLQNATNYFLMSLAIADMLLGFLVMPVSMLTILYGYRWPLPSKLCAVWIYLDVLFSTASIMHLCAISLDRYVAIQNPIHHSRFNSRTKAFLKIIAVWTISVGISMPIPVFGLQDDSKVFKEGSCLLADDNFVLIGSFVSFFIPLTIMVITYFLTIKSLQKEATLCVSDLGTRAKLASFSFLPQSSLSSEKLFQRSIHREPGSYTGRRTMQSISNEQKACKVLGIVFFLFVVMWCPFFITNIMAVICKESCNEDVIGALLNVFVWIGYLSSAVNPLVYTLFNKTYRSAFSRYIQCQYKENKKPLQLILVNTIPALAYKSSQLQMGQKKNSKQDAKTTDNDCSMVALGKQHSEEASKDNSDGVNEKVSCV
Sequence of hERG potassium channels (Q12809 whole entry): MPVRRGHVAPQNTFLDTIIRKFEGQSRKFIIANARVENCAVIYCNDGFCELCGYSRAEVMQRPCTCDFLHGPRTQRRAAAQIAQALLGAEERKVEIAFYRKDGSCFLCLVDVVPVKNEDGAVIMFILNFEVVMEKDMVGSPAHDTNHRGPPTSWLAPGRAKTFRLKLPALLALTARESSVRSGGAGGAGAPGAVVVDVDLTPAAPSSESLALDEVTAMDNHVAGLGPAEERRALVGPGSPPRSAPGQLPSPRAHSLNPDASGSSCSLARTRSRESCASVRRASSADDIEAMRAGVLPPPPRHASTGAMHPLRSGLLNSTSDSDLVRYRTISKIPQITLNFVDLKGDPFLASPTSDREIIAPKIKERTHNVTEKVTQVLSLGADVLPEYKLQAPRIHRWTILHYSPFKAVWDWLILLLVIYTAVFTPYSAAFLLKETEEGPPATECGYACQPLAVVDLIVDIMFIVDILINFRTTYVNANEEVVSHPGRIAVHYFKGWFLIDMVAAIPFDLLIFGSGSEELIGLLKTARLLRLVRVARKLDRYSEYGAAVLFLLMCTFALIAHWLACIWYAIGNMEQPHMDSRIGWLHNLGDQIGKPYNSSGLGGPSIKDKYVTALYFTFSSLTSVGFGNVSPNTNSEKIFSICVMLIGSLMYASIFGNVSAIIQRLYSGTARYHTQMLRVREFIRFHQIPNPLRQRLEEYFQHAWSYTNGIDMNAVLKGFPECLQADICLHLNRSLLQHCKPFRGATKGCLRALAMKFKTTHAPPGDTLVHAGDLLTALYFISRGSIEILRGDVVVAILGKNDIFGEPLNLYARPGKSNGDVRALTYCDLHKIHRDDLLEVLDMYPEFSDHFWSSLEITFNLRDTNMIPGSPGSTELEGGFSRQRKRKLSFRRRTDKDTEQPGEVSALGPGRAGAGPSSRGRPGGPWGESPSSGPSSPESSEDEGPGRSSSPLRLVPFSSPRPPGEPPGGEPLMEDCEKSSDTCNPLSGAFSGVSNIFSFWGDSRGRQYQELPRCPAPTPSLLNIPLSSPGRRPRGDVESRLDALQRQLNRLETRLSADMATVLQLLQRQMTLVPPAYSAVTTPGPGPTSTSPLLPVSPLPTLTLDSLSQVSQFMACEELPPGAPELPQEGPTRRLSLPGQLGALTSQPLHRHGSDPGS
Description for hERG potassium channels: • Name: Dimethyl sulfoxide (DMSO)
• Species & strains: CHO-hERG cell lines (Chinese hamster ovary cells stably expressing hERG channels) • Culture medium: 90% F12, 10% fetal bovine serum, 100 μg/mL G418 and 100 μg/mL hygromycin B • Culture conditions: 5% CO2, 37° C. incubator • Freezing conditions: Liquid nitrogen
Digestion was performed at room temperature for 3-5 min. The digestion solution was pipetted, and the cells were resuspended in extracellular fluid and transferred to an experimental dish for electrophysiological recording for later use.
On the day of the test, the compound was diluted with DMSO to an intermediate concentration. 10 μL of compound with the intermediate concentration was taken, transferred to 4990 μL of extracellular fluid, and subjected to 500-fold dilution to obtain a final concentration to be tested.
CHO (Chinese Hamster Ovary) cells stably expressing hERG potassium channels were taken, and hERG potassium channel currents were recorded at room temperature by means of a whole-cell patch-clamp technique. A glass microelectrode was formed by pulling a glass electrode blank (BF150-86-10, Sutter) with a glass microelectrode puller. The tip resistance was about 2-5 MΩ after perfusion of a pippette solution. The glass microelectrode could be connected to a patch clamp amplifier by inserting the glass microelectrode into an amplifier probe. Clamping voltages and data recording were controlled and recorded by a computer with pClamp 10 software, with a sampling frequency of 10 kHz and a filtering frequency of 2 kHz. After the whole-cell recording was obtained, the cells were clamped at −80 mV, and the step voltage evoking hERG potassium current (I hERG) was changed from −80 mV to +20 mV by giving a 2 s depolarization voltage and then repolarized to −50 mV for 1 s, and returned to −80 mV. Such voltage stimulation was given every 10 s, and the administration process was started after it was determined that the hERG potassium currents were stable (1 min). The compound at each test concentration was given at least 1 min, and at least 2 cells (n≥2) were tested for each concentration.
Data analysis was performed by means of pClamp 10 and GraphPad Prism 5.0 software.
The formula for calculating the degree of inhibition of different compound concentrations on hERG potassium currents (the hERG tail current peak value evoked at −50 mV) was:
Y=Bottom+(Top−Bottom)/(1+10^((LogIC50−X)*HillSlope))
wherein X is a Log value of a test concentration of a test sample, Y is the inhibition percentage at a corresponding concentration, and Bottom and Top are the minimum inhibition percentage and the maximum inhibition percentage, respectively.

Take `CC(C)c1cc2cc(CNC(=O)N(Cc3ccc(F)cn3)C3CCN(C)CC3)ccc2o1` [Compound 50]: the values for the IC50 at hERG potassium channels and at 5-HT2A receptor [1] were 550 nM and 20.9 nM, respectively.

At 5-HT2A receptor [2], `CC(C)CCc1ccc(CNC(=O)N(Cc2ccc(F)cn2)C2CCN(C)CC2)cc1` [Compound 52] showed an IC50 of 42.7 nM.

`CN1CCC(N(Cc2ccc(F)cn2)C(=O)NCc2ccc(OCCC(F)(F)F)cc2)CC1` [Compound 55]: the IC50 came to 690 nM at hERG potassium channels, 2.23 nM on 5-HT2A receptor [2] and 4.7 nM at 5-HT2A receptor [1].

For `CN1CCC(N(Cc2ccc(F)cc2)C(=O)NCc2ccc(OCCF)cc2)CC1` [Compound 56], the IC50 at 5-HT2A receptor [2] came to 9.9 nM; at 5-HT2A receptor [1] it was 5.77 nM.

In the case of `CN1CCC(N(Cc2ccc(F)cc2)C(=O)NCc2ccc(OCC(F)F)cc2)CC1` [Compound 57], the IC50 is 6.83 nM on 5-HT2A receptor [2] and 6.41 nM at 5-HT2A receptor [1].

Turning to `CN1CCC(N(Cc2ccc(F)cn2)C(=O)NCc2ccc(OCCF)cc2)CC1` [Compound 60], the IC50 is above 10000 nM on hERG potassium channels, 16.4 nM on 5-HT2A receptor [2] and 2.11 nM at 5-HT2A receptor [1].

Regarding `CN1CCC(N(Cc2ncc(F)cc2F)C(=O)NCc2ccc3c(c2)CC(C)(C)O3)CC1` [Compound 61], the IC50 at hERG potassium channels amounted to 2550 nM; on 5-HT2A receptor [2], 31.2 nM; on 5-HT2A receptor [1] it was 3.32 nM.

For the compound `CN1CCC(N(Cc2ccc(F)cn2)C(=O)NCc2ccc(OCCCCF)cc2)CC1` [Compound 62], the IC50 is 1430 nM on hERG potassium channels, 32.8 nM on 5-HT2A receptor [2] and 2.35 nM at 5-HT2A receptor [1].

`CC(C)COc1ccc(CNC(=O)N(Cc2ccc(F)cn2)C2CCN(CC3CCCCC3)CC2)cc1` [Compound 63] showed an IC50 at 5-HT2A receptor [2] of 20.8 nM.

Take `CN1CCC(N(Cc2ccc(F)cc2)C(=O)NCc2ccc(OCC(F)(F)F)cc2)CC1` [Compound 65]: the IC50 on hERG potassium channels amounted to 670 nM; on 5-HT2A receptor [2], 18.4 nM; on 5-HT2A receptor [1] it was 7.98 nM.

`CCN1CCC(N(Cc2ccc(F)cn2)C(=O)NCc2ccc(OCC(F)(F)F)cc2)CC1` [Compound 70]: the IC50 on hERG potassium channels amounted to 500 nM; at 5-HT2A receptor [2] it was 12.3 nM; on 5-HT2A receptor [1] it was 8.09 nM.

Take `CN1CCC(N(Cc2ccc(F)cn2)C(=O)NCc2cc(Cl)c3c(c2)CC(C)(C)O3)CC1` [Compound 71]: the IC50 on hERG potassium channels is 3320 nM; on 5-HT2A receptor [1] it was 9.52 nM.

On to `CN1CCC(N(Cc2ccc(F)cc2F)C(=O)NCc2ccc(OCC(F)F)cc2)CC1` [Compound 74], for which the IC50 on 5-HT2A receptor [1] stood at 8.95 nM.

As to `CN1CCC(N(Cc2ccc(F)cc2F)C(=O)NCc2ccc(OCCF)cc2)CC1` [Compound 75], the IC50 on 5-HT2A receptor [2] was 14.4 nM; on 5-HT2A receptor [1] it was 8.35 nM.

Regarding `CN1CCC(N(Cc2ccc(F)cc2F)C(=O)NCc2ccc3c(c2)CC(C)(C)O3)CC1` [Compound 76], the IC50 at 5-HT2A receptor [1] amounted to 20.7 nM.

Take `CN1CCC(N(Cc2ccc(F)cn2)C(=O)NCc2cc(Br)c3c(c2)CC(C)(C)O3)CC1` [Compound 77]: the IC50 on 5-HT2A receptor [2] amounted to 6.44 nM; on 5-HT2A receptor [1], 6.59 nM.

In the case of `CC(C)COc1ccc(CNC(=O)N(Cc2ccc(F)nn2)C2CCN(C)CC2)cc1` [Compound 91], the IC50 was 580 nM at hERG potassium channels and 14.7 nM at 5-HT2A receptor [1].

`CN1CCC(N(Cc2ccc(F)cn2)C(=O)NCc2ccc(OCCC(F)F)cc2)CC1` [Compound 92]: the IC50 on 5-HT2A receptor [2] came out at 6.54 nM; on 5-HT2A receptor [1], 4.64 nM.

As for `CN1CCC(N(Cc2ncc(F)cc2F)C(=O)NCc2ccc(OCCC(F)F)cc2)CC1` [Compound 93], the IC50 at 5-HT2A receptor [2] stood at 10.6 nM; at 5-HT2A receptor [1] it was 4.26 nM.

For `CN1CCC(N(Cc2ccc(F)cn2)C(=O)NCc2ccc(OCCCC(F)F)cc2)CC1` [Compound 94], the IC50 at 5-HT2A receptor [2] came to 7.59 nM; at 5-HT2A receptor [1], 4.29 nM.

Turning to `CN1CCC(N(Cc2ncc(F)cc2F)C(=O)NCc2ccc(OCCCC(F)F)cc2)CC1` [Compound 95], the IC50 was 27.9 nM at 5-HT2A receptor [2] and 5.13 nM at 5-HT2A receptor [1].

As for `CC(C)COc1ccc(CNC(=O)N(Cc2ccc(F)cn2)C2CCN(C)CC2)nc1` [Compound 96], the IC50 on 5-HT2A receptor [2] was 26.4 nM; on 5-HT2A receptor [1], 11.4 nM.

As to `CN1CCC(N(Cc2ccc(F)cn2)C(=O)NCc2ccc3c(c2)CCC(C)(C)O3)CC1` [Compound 98], the IC50 at hERG potassium channels came out at 1460 nM; on 5-HT2A receptor [1], 21.2 nM.

The record behind these values is US20230348421A1, “5-HT2A RECEPTOR INHIBITOR OR INVERSE AGONIST, PREPARATION METHOD THEREFOR, AND APPLICATION THEREOF” (GENEORA PHARMA (SHIJIAZHUANG) CO., LTD., priority 2020, published 2023).
